Consider 26 compounds from patent US20250230171A1 (MOMA Therapeutics, Inc., priority 2023, published 2025).

Read-outs that look alike come from different tables or passages of the source.

One assay concerns DLD1 WT cells. Put plainly: 7-day cell viability assay (CellTiter-Glo), DLD1 parental (WT). The format is cell-based, human. The following applies: 7-day CellTiter-Glo, n=2. Here is the method: Cell lines DLD1 WT and DLD1 BRCA2 (−/−) (Horizon Discovery Cat No. HD PAR-008 and HD-105-007) were plated in 384-well culture plates at seeding densities of 100cells/50 ul/well and 200 cells/50 uL/well respectively. The seeding densities are pre-determined from the growth curve kinetics performed to ensure log linear phase of cell growth for these 2 cell lines. These assay plates are then placed in the incubator at 37° C., 5% CO2, relative humidity >90% for a few hours before addition of test compounds. Compounds are dispensed using the Tecan HPD300 or Echo based on the plate map in the appropriate wells of the 384-well plates. The cells are treated with nine-point dose response with 3-fold serial dilutions of test compounds starting at 10 uM top concentration. After addition of the test compounds, the plates are incubated at 37° C., 5% CO2, relative humidity >90% for 7 days. CellTiter-Glo (Promega Cat. No. G7573), ATP detection reagent is prepared according to manufacturer's specifications. Cell assay plates are removed from incubator and bring to room temperature (RT) by letting them sit at bench top for at least 15 min. Using the MultiDrop liquid handler or a multichannel pipette, 35 μL/well of CTG is added and the plates are then placed shakes for 5 seconds, RT.
On the technique in general: ATP-based viability assays read luminescence as a measure of living cells.

A further assay relates to DLD1 BRCA2 (−/−) cells. The experiment in a line: 7-day cell viability assay (CellTiter-Glo), DLD1 BRCA2 (−/−). The class given is cell-based, human. The settings on record: 7-day CellTiter-Glo, n=2, read-out: Viability IC50 (uM) DLD1 BRCA2 null. The procedure, abridged:
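7-day growth assay in DLD1 cells with or without BRCA2; seeding densities chosen to keep log-linear growth. Compound: 10 uM top, 3-fold, 9 points. Endpoint: CTG ATP luminescence at RT.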

With “2′-chloro-N-(5-(5-chloro-4-(difluoromethyl)pyrimidine-2-carbonyl)-5,6-dihydro-4H-pyrrolo[3,4-d]thiazol-2-yl)-5′-methoxy-6-methyl-[4,4′-bipyridine]-3-carboxamide [Example 644]”, the IC50 was not below 10 µM in the assay with DLD1 WT cells and 0.1 to 0.25 µM in the assay on DLD1 BRCA2 (−/−) cells.
Turning to “2′-chloro-N-(5-(5-chloropyrimidine-2-carbonyl)-5,6-dihydro-4H-pyrrolo[3,4-d]thiazol-2-yl)-5′-(difluoromethoxy)-6-methyl-[4,4′-bipyridine]-3-carboxamide [Example 648]”, the half-maximal inhibitory concentration (IC50) with DLD1 WT cells is not below 10 µM; in the assay on DLD1 BRCA2 (−/−) cells it was 0.001 to 0.1 µM.
With “2′-chloro-N-(5-(6-chloro-5-fluoropicolinoyl)-5,6-dihydro-4H-pyrrolo[3,4-d]thiazol-2-yl)-5′-methoxy-6-methyl-[4,4′-bipyridine]-3-carboxamide [Example 388]”, the values for the half-inhibitory concentration (IC50) with DLD1 WT cells and in the assay with DLD1 BRCA2 (−/−) cells were 2 to 5 µM and 0.001 to 0.1 µM, respectively.
Regarding “4-(5-Cyano-2-methoxyphenyl)-N-(5-(3-(difluoromethyl)-4-methoxybenzoyl)-5,6-dihydro-4H-pyrrolo[3,4-d]thiazol-2-yl)-6-methylnicotinamide [Example 486]”, the IC50 in the assay with DLD1 WT cells is not below 10 µM; with DLD1 BRCA2 (−/−) cells, 0.001 to 0.1 µM.
Regarding `COc1cnc(Cl)cc1-c1cc(C)ncc1C(=O)Nc1nc2c(s1)CN(C(=O)c1ncc(Cl)c(C(F)F)n1)C2` (racemic), the IC50 was not below 10 µM in the assay with DLD1 WT cells (Homo sapiens, DLD-1, 168 h) and 0.25 to 0.5 µM in the assay with DLD1 BRCA2 (−/−) cells (Homo sapiens, DLD-1, 168 h).
Take `COc1cnc(Cl)cc1-c1cc(C)ncc1C(=O)Nc1nc2c(s1)CN(C(=O)c1ncc(C(F)F)nc1C)C2` (racemic): the IC50 with DLD1 WT cells (Homo sapiens, DLD-1, 168 h) was not below 10 µM; in the assay on DLD1 BRCA2 (−/−) cells (Homo sapiens, DLD-1, 168 h), 0.25 to 0.5 µM.
In the same order, the values of `COc1cnc(Cl)cc1-c1cc(C)ncc1C(=O)Nc1nc2c(s1)CN(C(=O)c1cc(C)cc(Cl)n1)C2` [Example 392, 2′-chloro-N-(5-(6-chloro-4-methylpicolinoyl)-5,6-dihydro-4H-pyrrolo[3,4-d]thiazol-2-yl)-5′-methoxy-6-methyl-[4,4′-bipyridine]-3-carboxamide] are not below 10 µM and 0.1 to 0.25 µM.
In the same order, the values of `COc1cnc(Cl)cc1-c1cc(C)ncc1C(=O)Nc1nc2c(s1)CN(C(=O)c1cccc(OC)c1Cl)C2` [Example 396, 2′-chloro-N-(5-(2-chloro-3-methoxybenzoyl)-5,6-dihydro-4H-pyrrolo[3,4-d]thiazol-2-yl)-5′-methoxy-6-methyl-[4,4′-bipyridine]-3-carboxamide] are not below 10 µM and 0.001 to 0.1 µM.
As for `COc1ncc(Cl)cc1-c1cc(C)ncc1C(=O)Nc1nc2c(s1)CN(C(=O)c1ccc(C(F)F)cn1)C2` [Example 446, 5-Chloro-N-(5-(5-(difluoromethyl)picolinoyl)-5,6-dihydro-4H-pyrrolo[3,4-d]thiazol-2-yl)-2-methoxy-6′-methyl-[3,4′-bipyridine]-3′-carboxamide], the concentration for half-maximal inhibition (IC50) lay within 2 to 5 µM in the assay on DLD1 WT cells (Homo sapiens, DLD-1, 168 h) and 0.001 to 0.1 µM with DLD1 BRCA2 (−/−) cells (Homo sapiens, DLD-1, 168 h).
In the case of `COc1cnc(Cl)cc1-c1cc(C)ncc1C(=O)Nc1nc2c(s1)CN(C(=O)c1ccc(C#N)cn1)C2` [Example 578], the IC50 lay in the range of 5 to 10 µM in the assay with DLD1 WT cells (Homo sapiens, DLD-1, 168 h) and 0.001 to 0.1 µM in the assay on DLD1 BRCA2 (−/−) cells (Homo sapiens, DLD-1, 168 h).
Regarding `COc1cnc(Cl)cc1-c1cc(C)ncc1C(=O)Nc1nc2c(s1)CN(C(=O)c1cc(C)c(C#N)cn1)C2` [Example 611], the half-inhibitory concentration (IC50) with DLD1 WT cells (Homo sapiens, DLD-1, 168 h) was not below 10 µM; with DLD1 BRCA2 (−/−) cells (Homo sapiens, DLD-1, 168 h) it was 0.001 to 0.1 µM.
As to `COc1cnc(Cl)cc1-c1cc(C)ncc1C(=O)Nc1nc2c(s1)CN(C(=O)c1nc(C)c(C(F)F)cc1F)C2` [Example 621], the IC50 in the assay on DLD1 WT cells (Homo sapiens, DLD-1, 168 h) was not below 10 µM; with DLD1 BRCA2 (−/−) cells (Homo sapiens, DLD-1, 168 h) it was 0.001 to 0.1 µM.
In the same order, the values of `COc1cnc(Cl)cc1-c1cc(C)ncc1C(=O)Nc1nc2c(s1)CN(C(=O)c1nc(C)c(Cl)nc1C)C2` [Example 622] are not below 10 µM and 0.001 to 0.1 µM.
On to `COc1cnc(Cl)cc1-c1cc(C)ncc1C(=O)Nc1nc2c(s1)CN(C(=O)c1c(C)cc(C(F)(F)F)nc1C)C2` [Example 649], for which the concentration for half-maximal inhibition (IC50) is not below 10 µM with DLD1 WT cells (Homo sapiens, DLD-1, 168 h) and 0.001 to 0.1 µM with DLD1 BRCA2 (−/−) cells (Homo sapiens, DLD-1, 168 h).
`COc1cnc(Cl)cc1-c1cc(C)ncc1C(=O)Nc1nc2c(s1)CN(C(=O)c1cc(C)c(C(F)F)cn1)C2` [Example 903, 2′-chloro-N-(5-(5-(difluoromethyl)-4-methylpicolinoyl)-5,6-dihydro-4H-pyrrolo[3,4-d]thiazol-2-yl)-5′-methoxy-6-methyl-[4,4′-bipyridine]-3-carboxamide]: the 50% inhibitory concentration (IC50) is not below 10 µM with DLD1 WT cells (Homo sapiens, DLD-1, 168 h) and 0.001 to 0.1 µM in the assay on DLD1 BRCA2 (−/−) cells (Homo sapiens, DLD-1, 168 h).
With `COc1cnc(Cl)cc1-c1cc(C)ncc1C(=O)Nc1nc2c(s1)CN(C(=O)c1ncc(C)nc1OC)C2` [Example 905, 2′-chloro-5′-methoxy-N-(5-(3-methoxy-5-methylpyrazine-2-carbonyl)-5,6-dihydro-4H-pyrrolo[3,4-d]thiazol-2-yl)-6-methyl-[4,4′-bipyridine]-3-carboxamide], the IC50 in the assay on DLD1 WT cells (Homo sapiens, DLD-1, 168 h) is not below 10 µM; in the assay on DLD1 BRCA2 (−/−) cells (Homo sapiens, DLD-1, 168 h) it was 0.001 to 0.1 µM.
`COc1cnc(Cl)cc1-c1cc(C)ncc1C(=O)Nc1nc2c(s1)CN(C(=O)c1ncc(C(F)F)c(OC)n1)C2` [Example 907, 2′-chloro-N-(5-(5-(difluoromethyl)-4-methoxypyrimidine-2-carbonyl)-5,6-dihydro-4H-pyrrolo[3,4-d]thiazol-2-yl)-5′-methoxy-6-methyl-[4,4′-bipyridine]-3-carboxamide]: the 50% inhibitory concentration (IC50) was not below 10 µM with DLD1 WT cells (Homo sapiens, DLD-1, 168 h) and 0.001 to 0.1 µM with DLD1 BRCA2 (−/−) cells (Homo sapiens, DLD-1, 168 h).
As to `COc1cnc(Cl)cc1-c1cc(C)ncc1C(=O)Nc1nc2c(s1)CN(C(=O)[C@H]1CC[C@H](C(F)F)CC1)C2` [Example 908, 2′-chloro-N-(5-((1r,4r)-4-(difluoromethyl)cyclohexane-1-carbonyl)-5,6-dihydro-4H-pyrrolo[3,4-d]thiazol-2-yl)-5′-methoxy-6-methyl-[4,4′-bipyridine]-3-carboxamide], the concentration for half-maximal inhibition (IC50) in the assay on DLD1 WT cells (Homo sapiens, DLD-1, 168 h) was not below 10 µM; in the assay with DLD1 BRCA2 (−/−) cells (Homo sapiens, DLD-1, 168 h) it was 0.001 to 0.1 µM.
Take `COc1cnc(Cl)cc1-c1cc(C)ncc1C(=O)Nc1nc2c(s1)CN(C(=O)[C@H]1CC[C@@H](C(F)F)CC1)C2` [Example 909, 2′-chloro-N-(5-((1s,4s)-4-(difluoromethyl)cyclohexane-1-carbonyl)-5,6-dihydro-4H-pyrrolo[3,4-d]thiazol-2-yl)-5′-methoxy-6-methyl-[4,4′-bipyridine]-3-carboxamide]: the IC50 with DLD1 WT cells (Homo sapiens, DLD-1, 168 h) was not below 10 µM; in the assay on DLD1 BRCA2 (−/−) cells (Homo sapiens, DLD-1, 168 h) it was 0.001 to 0.1 µM.
In the case of `Cc1cc(-c2cc(Cl)ncc2OC(F)F)c(C(=O)Nc2nc3c(s2)CN(C(=O)c2ncc(Cl)cn2)C3)cn1` [Example 910, 2′-chloro-N-(5-(5-chloropyrimidine-2-carbonyl)-5,6-dihydro-4H-pyrrolo[3,4-d]thiazol-2-yl)-5′-(difluoromethoxy)-6-methyl-[4,4′-bipyridine]-3-carboxamide], the concentration for half-maximal inhibition (IC50) in the assay with DLD1 WT cells (Homo sapiens, DLD-1, 168 h) is not below 10 µM; with DLD1 BRCA2 (−/−) cells (Homo sapiens, DLD-1, 168 h) it was 0.001 to 0.1 µM.
In the same order, the values of `Cc1cc(-c2cc(Cl)ncc2OC(F)F)c(C(=O)Nc2nc3c(s2)CN(C(=O)c2nc(C(F)F)ccc2Cl)C3)cn1` [Example 922, 2′-chloro-N-(S-(3-chloro-6-(difluoromethyl)picolinoyl)-5,6-dihydro-4H-pyrrolo[3,4-d]thiazol-2-yl)-5′-(difluoromethoxy)-6-methyl-[4,4′-bipyridine]-3-carboxamide] are not below 10 µM and 0.001 to 0.1 µM.
As to `COc1cnc(Cl)cc1-c1cc(C)ncc1C(=O)Nc1nc2c(s1)CN(C(=O)c1ccc(C(F)(F)F)nc1Cl)C2` [Example 923, 2′-chloro-N-(5-(2-chloro-6-(trifluoromethyl)nicotinoyl)-5,6-dihydro-4H-pyrrolo[3,4-d]thiazol-2-yl)-5′-methoxy-6-methyl-[4,4′-bipyridine]-3-carboxamide], the half-inhibitory concentration (IC50) with DLD1 WT cells (Homo sapiens, DLD-1, 168 h) was not below 10 µM; in the assay on DLD1 BRCA2 (−/−) cells (Homo sapiens, DLD-1, 168 h) it was 0.001 to 0.1 µM.
As to `COc1cnc(Cl)cc1-c1cc(C)ncc1C(=O)Nc1nc2c(s1)CN(C(=O)[C@H]1CC[C@@H](OC(F)(F)F)CC1)C2` [Example 925], the IC50 was in the range of 5 to 10 µM in the assay with DLD1 WT cells (Homo sapiens, DLD-1, 168 h) and 0.001 to 0.1 µM with DLD1 BRCA2 (−/−) cells (Homo sapiens, DLD-1, 168 h).
Take `COc1cnc(Cl)cc1-c1cc(C)ncc1C(=O)Nc1nc2c(s1)CN(C(=O)c1nccc(Cl)c1C(F)F)C2` [Example 926, 2′-chloro-N-(5-(4-chloro-3-(difluoromethyl)picolinoyl)-5,6-dihydro-4H-pyrrolo[3,4-d]thiazol-2-yl)-5′-methoxy-6-methyl-[4,4′-bipyridine]-3-carboxamide]: the IC50 in the assay with DLD1 WT cells (Homo sapiens, DLD-1, 168 h) was not below 10 µM; in the assay on DLD1 BRCA2 (−/−) cells (Homo sapiens, DLD-1, 168 h), 0.001 to 0.1 µM.
In the case of `COc1cnc(Cl)cc1-c1cc(C)ncc1C(=O)Nc1nc2c(s1)CN(C(=O)c1nc(Cl)c(C(F)F)cc1F)C2` [Example 927, 2′-chloro-N-(5-(6-chloro-5-(difluoromethyl)-3-fluoropicolinoyl)-5,6-dihydro-4H-pyrrolo[3,4-d]thiazol-2-yl)-5′-methoxy-6-methyl-[4,4′-bipyridine]-3-carboxamide], the IC50 in the assay with DLD1 WT cells (Homo sapiens, DLD-1, 168 h) is not below 10 µM; in the assay on DLD1 BRCA2 (−/−) cells (Homo sapiens, DLD-1, 168 h), 0.001 to 0.1 µM.
On to `COc1cnc(Cl)cc1-c1cc(C)ncc1C(=O)Nc1nc2c(s1)CN(C(=O)c1nc(C(F)(F)F)ccc1F)C2` [Example 936, 2′-chloro-N-(5-(3-fluoro-6-(trifluoromethyl)picolinoyl)-5,6-dihydro-4H-pyrrolo[3,4-d]thiazol-2-yl)-5′-methoxy-6-methyl-[4,4′-bipyridine]-3-carboxamide], for which the half-inhibitory concentration (IC50) is not below 10 µM in the assay on DLD1 WT cells (Homo sapiens, DLD-1, 168 h) and 0.001 to 0.1 µM in the assay with DLD1 BRCA2 (−/−) cells (Homo sapiens, DLD-1, 168 h).

A word on the IC50: it is the concentration at which inhibition is half-maximal.
